The results in this text go back to patent US4159373A, “7-Acyl-3-(sulfonic acid and sulfamoyl substituted tetrazolyl thiomethyl) cephalosporins” (SmithKline Corporation, priority 1978, dated 1979).

Structures are written as SMILES. Values after ≈ are worked out from the molar mass of the structure shown. Where two headings read alike, the source gives them in different places. Bounds are passed on as bounds.

One test has as its system Psuedo. sp. HH 63. Put plainly: MIC in vitro. It is filed as cell-based, Pseudo. aeruginosa. To be noted: Pseudomonas aeruginosa; Table 1; Psuedo. sp. HH 63; read-out: MIC in vitro. The protocol: (§1) The compounds of Formula I have exceptional antibacterial activity against both Gram-positive and Gram-negative organisms. Minimum inhibitory concentrations (MIC's) ranged from 0.2 to <200 μg./ml. in in vitro testing.

Test [1] deals with Entero. aerog. ATCC 13048. Put plainly: MIC in vitro. Type of test: cell-based, Enterobacter aerogenes. Particulars: Klebsiella aerogenes, ATCC13048, Table 1; Entero. aerog. ATCC 13048; read-out: MIC in vitro. Here is the method: as §1
In another test the test system is Serra. marc ATCC 13880. Put plainly: MIC in vitro. Type of test: cell-based, Serratia marcescens. To be noted: Serra. marc ATCC 13880; for MIC: Serratia marcescens, ATCC13880, Table 1, read-out: MIC in vitro. The protocol:
as §1

The next test has as its system Kleb. pneumo. SK 1200. Put plainly: MIC in vitro. Type of test: cell-based, Kleb. pneumoniae. Particulars: Klebsiella pneumoniae, read-out: MIC in vitro. Here is the method: as §1
The next test concerns Kleb. pneumo. SK 4200. Put plainly: MIC in vitro. It is filed as cell-based, Kleb. pneumoniae. To be noted: Table 1, Kleb. pneumo. SK 4200; for MIC: Klebsiella pneumoniae, read-out: MIC in vitro. The protocol: as §1
A further test has as its system Entero. cloacae HH 31254. Put plainly: MIC in vitro. It is filed as cell-based. To be noted: Enterobacter cloacae.
A further test deals with S. villaluz. Put plainly: MIC in vitro. It is filed as cell-based. To be noted: Table 1. Here is the method:
as §1

The subject of the next test is S. aureus HH 127. Put plainly: MIC in vitro. Type of test: cell-based. To be noted: Staphylococcus aureus, HH127; Table 1; S. aureus HH 127; read-out: MIC in vitro. The protocol:
as §1

In a further test the test system is E. coli HH 33779. Put plainly: MIC in vitro. Type of test: cell-based. To be noted: E. coli HH 33779; for MIC: Escherichia coli, HH33779, Table 1, read-out: MIC in vitro. Here is the method: as §1
A further test relates to S. aureus SK 23390. Put plainly: MIC in vitro. It is filed as cell-based. Particulars: S. aureus SK 23390; for MIC: Staphylococcus aureus, SK23390, Table 1, read-out: MIC in vitro. Here is the method:
as §1

For another test, the system named is Proteus morgani 179. Put plainly: MIC in vitro. To be noted: Table 1, read-out: MIC in vitro. Type of test: cell-based. The protocol: as §1
The next test has as its system E. coli SK 12140. Put plainly: MIC in vitro. It is filed as cell-based. To be noted: Escherichia coli, E. coli SK 12140. Here is the method: as §1
The test system of a further test is Salmonella ATCC 12176. Put plainly: MIC in vitro. It is filed as cell-based. To be noted: for MIC: Salmonella. The protocol: as §1
For a further test, the system named is Strep. Faecalis HH 34358. Put plainly: MIC in vitro. To be noted: Enterococcus faecalis, Table 1; Strep. Faecalis HH 34358; read-out: MIC in vitro. It is filed as cell-based. The protocol: as §1
In another test the test system is Kleb. pneumo. 4200. Put plainly: In vivo mouse protection, Kleb. pneumo. 4200. To be noted: read-out: ED50 in vivo.
Another test deals with E. coli 12140. Put plainly: In vivo mouse protection, E. coli 12140. To be noted: Table 2, E. coli 12140, read-out: ED50 in vivo.
For the next test, the system named is shigella HH 117. Put plainly: MIC in vitro. Type of test: cell-based. Here is the method:
as §1

The mark [2] stands for this setting: HH31254, Table 1, read-out: MIC in vitro.
Where [3] appears, read: SK12140, Table 1, read-out: MIC in vitro.
Where [4] appears, read: ATCC12176, Table 1, read-out: MIC in vitro.
The mark [5] stands for this setting: sc, Table 2, Kleb. pneumo. 4200, s.c.
Where [6] appears, read: Escherichia coli, 12140, sc, s.c.

In the case of `N#CCC(=O)NC1C(=O)N2C(C(=O)O)=C(CSc3nnnn3CS(=O)(=O)O)CS[C@H]12` (stereo partly drawn) [XII, 7-cyanoacetamido-3-(1-sulfomethyltetrazol-5-ylthiomethyl)-3-cephem-4-carboxylic acid], the MIC (as a rule, the least concentration at which growth counts as inhibited) was > 200 mg/L with Psuedo. sp. HH 63; 3.1 mg/L (≈ 6.52 µM) in test [1]; 50 mg/L (≈ 105 µM) in the test on Serra. marc ATCC 13880; 0.4 mg/L (≈ 0.841 µM) with Kleb. pneumo. SK 1200; 0.8 mg/L (≈ 1.68 µM) in the test with Kleb. pneumo. SK 4200; 1.6 mg/L (≈ 3.36 µM) with Entero. cloacae HH 31254 (setting [2]). In addition, the MIC is > 200 mg/L against S. villaluz; 1.6 mg/L (≈ 3.36 µM) in the test on S. aureus HH 127; 1.6 mg/L (≈ 3.36 µM) in the test on E. coli HH 33779; 1.6 mg/L (≈ 3.36 µM) in the test with S. aureus SK 23390; 200 mg/L (≈ 421 µM) with Proteus morgani 179; 0.8 mg/L (≈ 1.68 µM) in the test on E. coli SK 12140 (setting [3]). The MIC with Salmonella ATCC 12176 (setting [4]) was 0.4 mg/L (≈ 0.841 µM); in the test with Strep. Faecalis HH 34358, 50 mg/L (≈ 105 µM).
On to `O=C(CSC(F)(F)F)NC1C(=O)N2C(C(=O)O)=C(CSc3nnnn3CS(=O)(=O)O)CSC12` (stereo not drawn) [VII, 7-Trifluoromethylthioacetamido-3-(1-sulfomethyltetrazol-5-ylthiomethyl)-3-cephem-4-carboxylic acid], for which the MIC was > 200 mg/L in the test with Psuedo. sp. HH 63; 200 mg/L (≈ 363 µM) with Serra. marc ATCC 13880; 0.2 mg/L (≈ 0.363 µM) in the test with Kleb. pneumo. SK 1200 (Table 1, Kleb. pneumo. SK 1200); 0.4 mg/L (≈ 0.727 µM) with Kleb. pneumo. SK 4200; 3.1 mg/L (≈ 5.63 µM) with Entero. cloacae HH 31254 (setting [2]); 0.8 mg/L (≈ 1.45 µM) in the test on Entero. cloacae HH 31254 (HH31254, read-out: MIC in vitro, Table 1). For the same molecule, the MIC turned out to be 0.8 mg/L (≈ 1.45 µM) in the test with S. aureus HH 127; 3.1 mg/L (≈ 5.63 µM) with E. coli HH 33779; 0.8 mg/L (≈ 1.45 µM) with S. aureus SK 23390; 100 mg/L (≈ 182 µM) with Proteus morgani 179; 0.4 mg/L (≈ 0.727 µM) in the test with E. coli SK 12140 (SK12140, read-out: MIC in vitro, Table 1); 0.8 mg/L (≈ 1.45 µM) with E. coli SK 12140 (setting [3]). Also, the MIC in the test on shigella HH 117 (Shigella, HH117, read-out: MIC in vitro) is 0.8 mg/L (≈ 1.45 µM); in the test with Salmonella ATCC 12176 (ATCC12176, read-out: MIC in vitro, Table 1) it was 0.4 mg/L (≈ 0.727 µM); with Strep. Faecalis HH 34358, 50 mg/L (≈ 90.8 µM). The MIC in vitro was determined as 100 mg/L (≈ 182 µM) against Serra. marc ATCC 13880 (Table 1); 0.2 mg/L (≈ 0.363 µM) in the test on Kleb. pneumo. SK 4200; 1.6 mg/L (≈ 2.91 µM) with E. coli HH 33779 (Table 1); 0.4 mg/L (≈ 0.727 µM) in the test with S. aureus SK 23390 (Table 1); 0.2 mg/L (≈ 0.363 µM) against Salmonella ATCC 12176 (Table 1). Also, the figures for the ED50 in the test with Kleb. pneumo. 4200 (setting [5]) and with E. coli 12140 (setting [6]) were 0.24 mg/kg and 0.86 mg/kg, respectively.
Turning to `O=C(O)C1=C(CSc2nnnn2CCS(=O)(=O)O)CS[C@@H]2C(NC(=O)[C@H](O)c3ccccc3)C(=O)N12` (stereo partly drawn) [II, 7-D-Mandelamido-3-[1-(2-sulfoethyl)tetrazol-5-ylthiomethyl]-3-cephem-4-carboxylic acid], the MIC was > 200 mg/L in the test on Psuedo. sp. HH 63; 6.3 mg/L (≈ 11.3 µM) in test [1]; 25 mg/L (≈ 44.9 µM) in the test on Serra. marc ATCC 13880; 0.4 mg/L (≈ 0.719 µM) in the test with Kleb. pneumo. SK 1200; 0.8 mg/L (≈ 1.44 µM) with Kleb. pneumo. SK 4200; 3.1 mg/L (≈ 5.57 µM) in the test with Entero. cloacae HH 31254 (setting [2]). For the same molecule, the MIC in the test on S. aureus HH 127 came out at 1.6 mg/L (≈ 2.87 µM); in the test with E. coli HH 33779 it was 1.6 mg/L (≈ 2.87 µM); in the test on S. aureus SK 23390, 0.8 mg/L (≈ 1.44 µM); in the test with Proteus morgani 179, 6.3 mg/L (≈ 11.3 µM); with E. coli SK 12140 (setting [3]), 0.8 mg/L (≈ 1.44 µM); in the test with shigella HH 117 (HH117, Table 1, shigella HH 117, read-out: MIC in vitro) it was 0.4 mg/L (≈ 0.719 µM). The MIC stood at 0.8 mg/L (≈ 1.44 µM) in the test with Salmonella ATCC 12176 (setting [4]) and 50 mg/L (≈ 89.8 µM) with Strep. Faecalis HH 34358. The ED50 (as a rule, the dose that gives a 50% effect, or the effect in half of the subjects) is 18.6 mg/kg in the test on Kleb. pneumo. 4200 (po, Table 2, Kleb. pneumo. 4200, p.o.); 0.39 mg/kg in the test on Kleb. pneumo. 4200 (setting [5]); 35 mg/kg with E. coli 12140 (Escherichia coli, 12140, po, p.o.); 0.58 mg/kg in the test with E. coli 12140 (setting [6]).
